# Experimental data as given in PubChem BioAssay (NCI).
#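 All cell lines were grown in 96-well plates and treated with compound for 48 hours. Here, GI50 denotes the concentration required for 50% inhibition of growth. Definition used: TGI = concentration required for complete inhibition of growth.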
# Key:
# Assay in all cases: NCI tumour cell line growth inhibition, 48 h
# [1] = test system: 786-0 renal
# [2] = test system: A498 renal
# [3] = test system: A549 NSCLC
# [4] = test system: ACHN renal
# [5] = test system: BT-549 breast
# [6] = test system: CAKI-1 renal
# [7] = test system: CCRF-CEM leukemia
# [8] = test system: COLO 205 colon
# [9] = test system: DU-145 prostate
# [10] = test system: EKVX NSCLC
# [11] = test system: HCC-2998 colon
# [12] = test system: HCT-116 colon
# [13] = test system: HCT-15 colon
# [14] = test system: HL-60(TB) leukemia
# [15] = test system: HOP-62 NSCLC
# [16] = test system: HOP-92 NSCLC
# [17] = test system: HS 578T breast
# [18] = test system: HT29 colon
# [19] = test system: IGROV1 ovarian
# [20] = test system: K-562 leukemia
# [21] = test system: KM12 colon
# [22] = test system: LOX IMVI melanoma
# [23] = test system: M14 melanoma
# [24] = test system: MALME-3M melanoma
# [25] = test system: MCF7 breast
# [26] = test system: MDA-MB-231 breast
# [27] = test system: MDA-MB-435
# [28] = test system: MOLT-4 leukemia
# [29] = test system: NCI-H226 lung
# [30] = test system: NCI-H23 lung
# [31] = test system: NCI-H460 lung
# [32] = test system: NCI-H522 lung
# [33] = test system: NCI/ADR-RES ovarian
# [34] = test system: OVCAR-3 ovarian
# [35] = test system: OVCAR-4 ovarian
# [36] = test system: OVCAR-5 ovarian
# [37] = test system: OVCAR-8 ovarian
# [38] = test system: PC-3 prostate
# [39] = test system: RPMI-8226 leukemia
# [40] = test system: RXF 393 renal
# [41] = test system: SF-268 CNS
# [42] = test system: SF-295 CNS
# [43] = test system: SF-539 CNS
# [44] = test system: SK-MEL-2 melanoma
# [45] = test system: SK-MEL-28 melanoma
# [46] = test system: SK-MEL-5 melanoma
# [47] = test system: SK-OV-3 ovarian
# [48] = test system: SN12C renal
# [49] = test system: SNB-19 CNS
# [50] = test system: SNB-75 CNS
# [51] = test system: SR leukemia
# [52] = test system: SW-620 colon
# [53] = test system: T-47D breast
# [54] = test system: TK-10 renal
# [55] = test system: U251 CNS
# [56] = test system: UACC-257 melanoma
# [57] = test system: UACC-62 melanoma
# [58] = test system: UO-31 renal
smiles,measurement,setting,value
CCn1c(-c2nonc2N)nc2cnc(Oc3cccc(NC(=O)c4ccc(OCCN5CCOCC5)cc4)c3)cc21,GI50,[1],3.49 µM
same,TGI,[1],> 25 µM
same,GI50,[2],1.05 µM
same,TGI,[2],> 23.7 µM
same,GI50,[3],2.52 µM
same,TGI,[3],> 25 µM
same,GI50,[4],2.17 µM
same,TGI,[4],> 25 µM
same,GI50,[5],0.438 µM
same,TGI,[5],15.3 µM
same,GI50,[6],0.116 µM
same,TGI,[6],> 17.9 µM
same,GI50,[7],0.671 µM
same,TGI,[7],> 25 µM
same,GI50,[8],3.34 µM
same,TGI,[8],> 25 µM
same,GI50,[9],5.43 µM
same,TGI,[9],> 25 µM
same,GI50,[10],0.752 µM
same,TGI,[10],> 25 µM
same,GI50,[11],15.2 µM
same,TGI,[11],> 25 µM
same,GI50,[12],1.81 µM
same,TGI,[12],> 25 µM
same,GI50,[13],2.16 µM
same,TGI,[13],> 25 µM
same,GI50,[14],10.3 µM
same,TGI,[14],> 25 µM
same,GI50,[15],1.5 µM
same,TGI,[15],> 25 µM
same,GI50,[16],0.0025 µM
same,TGI,[16],> 25 µM
same,GI50,[17],0.0149 µM
same,TGI,[17],8.26 µM
same,GI50,[18],10.7 µM
same,TGI,[18],> 25 µM
same,GI50,[19],2.98 µM
same,TGI,[19],> 20.3 µM
same,GI50,[20],7.38 µM
same,TGI,[20],> 25 µM
same,GI50,[21],7.63 µM
same,TGI,[21],> 25 µM
same,GI50,[22],3.1 µM
same,TGI,[22],> 25 µM
same,GI50,[23],12.7 µM
same,TGI,[23],> 25 µM
same,GI50,[24],4.14 µM
same,TGI,[24],> 25 µM
same,GI50,[25],3.87 µM
same,TGI,[25],> 25 µM
same,GI50,[26],1.65 µM
same,TGI,[26],> 25 µM
same,GI50,[27],7.39 µM
same,TGI,[27],> 25 µM
same,GI50,[28],4.29 µM
same,TGI,[28],24.4 µM
same,GI50,[29],1.24 µM
same,TGI,[29],> 25 µM
same,GI50,[30],4.9 µM
same,TGI,[30],> 25 µM
same,GI50,[31],2.3 µM
same,TGI,[31],> 25 µM
same,GI50,[32],1.41 µM
same,TGI,[32],> 25 µM
same,GI50,[33],6.1 µM
same,TGI,[33],> 25 µM
same,GI50,[34],7.17 µM
same,TGI,[34],> 25 µM
same,GI50,[35],4.48 µM
same,TGI,[35],> 25 µM
same,GI50,[36],5.22 µM
same,TGI,[36],> 25 µM
same,GI50,[37],6.25 µM
same,TGI,[37],> 25 µM
same,GI50,[38],2.88 µM
same,TGI,[38],> 25 µM
same,GI50,[39],4.28 µM
same,TGI,[39],> 25 µM
same,GI50,[40],1.31 µM
same,TGI,[40],12.9 µM
same,GI50,[41],0.724 µM
same,TGI,[41],> 25 µM
same,GI50,[42],0.974 µM
same,TGI,[42],> 16.9 µM
same,GI50,[43],0.929 µM
same,TGI,[43],> 25 µM
same,GI50,[44],7.54 µM
same,TGI,[44],> 25 µM
same,GI50,[45],> 20.1 µM
same,TGI,[45],> 25 µM
same,GI50,[46],3.18 µM
same,TGI,[46],> 22 µM
same,GI50,[47],7.33 µM
same,TGI,[47],> 25 µM
same,GI50,[48],6.26 µM
same,TGI,[48],> 25 µM
same,GI50,[49],12.1 µM
same,TGI,[49],> 25 µM
same,GI50,[50],0.0594 µM
same,TGI,[50],7.65 µM
same,GI50,[51],0.886 µM
same,TGI,[51],> 25 µM
same,GI50,[52],4.57 µM
same,TGI,[52],> 25 µM
same,GI50,[53],1.94 µM
same,TGI,[53],> 25 µM
same,GI50,[54],0.564 µM
same,TGI,[54],13.7 µM
same,GI50,[55],7.17 µM
same,TGI,[55],> 25 µM
same,GI50,[56],7.09 µM
same,TGI,[56],> 25 µM
same,GI50,[57],6.39 µM
same,TGI,[57],> 25 µM
same,GI50,[58],0.0089 µM
same,TGI,[58],5.07 µM
